Experiments:
[1] = tested on: H929 multiple myeloma tumour line; assay: In vitro cytotoxicity (MTT, Microculture Tetrazolium Assay); type: cell-based; conditions: Homo sapiens, NCI-H929; H929 cells, 48 hours exposure, cell viability
Procedure: The cytotoxicity studies were carried out on the H929 multiple myeloma tumour line.
The cells are distributed onto microplates and exposed to the test compounds for 48 hours.
The cell viability is then quantified by a colorimetric assay, the Microculture Tetrazolium Assay (Cancer Res., 1987, 47, 939-942).

Mcl-1 protein = Mcl-1 protein (UniProtKB Q07820) (Homo sapiens, UniProt Q07820); assay: Inhibition of Mcl-1 by the fluorescence polarisation technique; type: binding; conditions: fluorescein labelled ligand 1 nM, Mcl-1 protein 5 nM, ~2 hours at room temperature; read-out: IC50 (μM) Mcl-1 FP
Procedure: The relative binding potency of each compound was determined via Fluorescence Polarisation (FP). The method utilised a Fluorescein labelled ligand (Fluorescein-βAla-Ahx-A-REIGAQLRRMADDLNAQY-OH; mw 2,765) which binds to the Mcl-1 protein (such that Mcl-1 corresponds to the UniProtKB® primary accession number: Q07820) leading to an increased anisotropy measured in milli-polarisation (mP) units using a reader. The addition of a compound which binds competitively to the same site as the ligand will result in a greater proportion of unbound ligand in the system indicated by a decrease in mP units.
An 11 point serial dilution of each compound was prepared in DMSO and 2 μl transferred into flat bottomed, low binding, 384-well plate (final DMSO concentration 5%). 38 μl of buffer (10 mM 4-(2-hydroxyethyl)-1-piperazineethanesulfonic acid [HEPES], 150 mM NaCl, 0.05% Tween 20, pH 7.4), containing the Fluorescein labelled ligand (final concentration 1 nM) and Mcl-1 protein (final concentration 5 nM) was then added.
Assay plates were incubated ˜2 hours at room temperature before FP was measured on a […] Synergy2 reader (Ex. 528 nm, Em. 640 nm, Cut off 510 nm) and mP units calculated. The binding of increasing doses of test compound was expressed as a percentage reduction in mP compared to a window established between ‘5% DMSO only’ and ‘100% inhibition’ controls. 11-point dose response curves were plotted with XL-Fit software using a 4-Parameter Logistic Model (Sigmoidal Dose-Response Model) and the inhibitory concentrations that gave a 50% reduction in mP (IC50) were determined.

Chain of Mcl-1 protein (Q07820 whole entry): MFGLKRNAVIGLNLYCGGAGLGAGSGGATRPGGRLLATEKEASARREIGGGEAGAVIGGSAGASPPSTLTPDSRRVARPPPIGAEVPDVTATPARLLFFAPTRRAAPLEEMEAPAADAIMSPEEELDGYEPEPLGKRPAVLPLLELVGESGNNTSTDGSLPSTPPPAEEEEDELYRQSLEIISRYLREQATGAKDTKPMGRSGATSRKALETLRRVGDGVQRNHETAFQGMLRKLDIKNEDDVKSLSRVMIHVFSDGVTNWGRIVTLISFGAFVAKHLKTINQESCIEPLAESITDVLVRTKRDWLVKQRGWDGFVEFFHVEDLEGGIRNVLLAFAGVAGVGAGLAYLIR

IC50 (Mcl-1 protein): 0.00181 µM
Compound: COc1ccccc1-c1nccc(COc2ccccc2C[C@@H](Oc2ncnc3sc(-c4ccc(F)cc4)c(-c4c(C)c(Cl)c(OCCN5CCN(C)CC5)c(Cl)c4C)c23)C(=O)O)n1 [Preparation 13, (2R)-2-{[5-{3,5-dichloro-2,6-dimethyl-4-[2-(4-methylpiperazin-1-yl)ethoxy]phenyl}-6-(4-fluorophenyl)thieno[2,3-d]pyrimidin-4-yl]oxy}-3-(2-{[2-(2-methoxyphenyl)pyrimidin-4-yl]methoxy}phenyl)propanoic Acid]
IC50 [1]: 0.025 µM
